pIC50: −log10 of the molar value. Read-outs that look alike come from different tables or passages of the source.
Legend:
[1] = system: M21, CH27, H460, Hep3B and HSC-3 cells; assay: trypan blue exclusion assay, cancer cell panel (summary); type: cell-based; conditions: summary of Table 2
Protocol: (§1) Cell viability was also determined by trypan-blue exclusion assay. Cells were seeded in 6-well plates (2×10^4/well) for trypan blue exclusion assay, and incubated for 24 hours at 37° C. Culture medium containing test compound or DMSO (0.006%) was added to each well, and cells were incubated at 37° C. At indicated time points (0, 24, 48, 72 and 96 hr), cells were suspended with 0.05% trypsin-EDTA, and stained with trypan-blue dye (0.4%) (Sigma). The cell viability was evaluated by the percentage of death relative to the total cell, and cell growth curve was determined by number of live cells relative to the total number of cells.
(§2) The anti-proliferation effects of Compounds 17-31 on M21, CH27, H460, Hep3B and HSC-3 cells were evaluated by the trypan blue exclusion assay.

M21 = assay: trypan blue exclusion assay, M21 cells; type: cell-based; conditions: Homo sapiens
Protocol: M21 cell line (human malignant melanoma) was provided by Dr. Feng-Yao Tang (China Medical University, Taiwan). Cells were grown in monolayer culture in RPMI-1640 medium, Eagle's minimum essential medium or Dulbecco's modified Eagles medium (Invitrogen Corporation, Grand Island, N.Y., USA) containing 10% fetal bovine serum (FBS; HyClone, Logan, Utah, USA), 100 U/ml penicillin and 100 μg/ml streptomycin (Gibco BRL, Rockville, Md., USA).
as §1, §2

[2] = system: U87 human glioma xenograft; assay: in vivo xenograft animal model; set-up: species or system nude mice; conditions: 1.36 microgram/kg intra-tumor every 2 days for 10 times, after 40 days
Protocol: For tumorigenesis, U87 glioma cells (1×10^6 cells per 100 μl PBS) were inoculated subcutaneously into the right flank of 8-to-10-week-old male nude mice (BALB/cAnN-Foxnlnu/CrlNarl mice, National Laboratory Animal Center, Taiwan). Tumor growth was measured every three days. Tumor volume was calculated by volume (mm^3)=[…] (Zhou, Y. H., Wu, X., Tan, F., Shi, Y. X., Glass, T., Liu, T. J., Wathen, K., Hess, K. R., Gumin, J, Lang, F., et al. (2005). PAX6 suppresses growth of human glioblastoma cells. J Neurooncol 71, 223-229). When the tumors reached a mean volume of 50 to 70 mm^3, MJ-66 (1.36 microgram/kg in saline) or vehicle (DMSO or saline) was injected intratumor once per two days during 20 days.
Since MJ-66 was able to effectively cause glioma to undergo mitotic catastrophe in vitro, whether MJ-66 could inhibit tumor growth in vivo was further examined by U87 human glioma xenograft animal model. Approximately 1×10^6 U87 glioma cells were injected subcutaneously into the nude mice and when tumors size reached 50 to 200 mm^3 in volume, MJ-66 (1.36 microgram/kg in saline) or vehicle (DMSO or saline denoted respectively as DMSO and Control) was administered by intra-tumor every 2 days for 10 times and tumor volume was measured for 50 days. Tumor growth was observed every three days.

C6 glioma cells = assay: G1 synchronized by Ara-C, flow cytometry; type: cell-based, rat; conditions: 60 nM MJ-66 after 41.6 nM Ara-C 12 hours; at 12th and 24th hours
Protocol: At indicated time points (0, 6, 12 and 24 hr), >10^6 cells were collected and fixed in 70% ethanol over 1 hour at −20° C. After staining with PI as described, DNA content of ten thousand cells was analyzed by flow cytometry.
To investigate the influence of MJ-66 on normal glia such as human glia cell line SVGP12 and rat primary glia cells, cells were treated with different concentrations of MJ-66 in vitro (0.00625, 0.0125, 0.025, 0.05, 0.1 and 1 μM) for different time durations (0, 6, 12 and 24 hours) and the cell viability was assessed by MTS assay. Cells alone or treated with DMSO were used as control. […] However, most glia cells in animals are static and their proliferation rate is almost silent. Therefore, cytosine arabinoside (Ara-C), a DNA synthesis inhibitor, was further used to inhibit glioma cell proliferation and glioma cells were then treated with MJ-66 or DMSO as described in “General materials and methods”. Specifically, after C6 glioma cells were treated with 41.6 nM Ara-C for 12 hours, and then treated with solvent (DMSO) or 60 nM MJ-66 for 0, 6, 12 and 24 hours, the cell cycle distributions and DNA content of the cells were monitored by flow cytometry with propidium iodide staining C6 glioma cells treated with 41.6 nM Ara-C for 12 hours (12 hr) were detected by flow cytometry with propidium iodide staining as control.

Hep3B = assay: trypan blue exclusion assay, Hep3B cells; type: cell-based; conditions: Hep3B human hepatoma
Protocol: Hep3B (human hepatocellular carcinoma) and H460 (lung non-small carcinoma) cells were grown in monolayer culture in Dulbecco's modified Eagle's medium (DMEM) (Life Technologies, Rockville, Md., USA) containing 5% fetal bovine serum (HyClone, Logan, Utah, USA), 100 U/ml penicillin and 100 μg/ml streptomycin (Gibco BRL, Rockville, Md., USA) and 2 mM glutamine (Merck, Darmstadt, Germany).
as §1, §2

HT29-5FUR cells = assay: MTT cell viability assay, HT29-5FUR cells; type: cell-based, human; conditions: 25, 50, 100 and 200 nM for 24 and 48 hours
Protocol: HT29-5FUR cell line (human colon adenocarcinoma) provided by Dr. Jai-Sing Yang (China Medical University, Taiwan) was cultured in RPMI-1640 medium (Invitrogen, Carlsbad, Calif., USA) supplemented with 10% fetal bovine serum, 2 mM L-glutamine, 100 U/ml penicillin, and 100 μg/ml streptomycin.
Cells (1×10^4 cells/well) in 96-well plates were exposed to test MJ-66, and 0.1% DMSO in media served as a vehicle control. After 24 and 48 hr-incubations, […] MTT (0.5 mg/mL) solution was added to each well, the plate was incubated at 37° C. for 4 hours. Then, […] 0.04 N HCl in isopropanol was added and the absorbance at 570 nm was measured for each well. The cell survival rate was expressed as % of control. All results were performed from three independent experiments.
The growth inhibition effects of MJ-66 on HT29-5FUR cells were investigated. For cell viability assay, HT29-5FUR cells were cultured and treated with 0, 25, 50, 100 and 200 nM MJ-66 and the percentages of viable cells were detected by MTT assay described in “General materials and methods”.

With O=c1[nH]c(-c2cccc3ccccc23)nc2ccc(N3CCCC3)cc12 [Compound 23, 6-(Pyrrolidin-1-yl)-2-(naphthalen-1-yl)quinazolin-4-one] the “cytotoxic effects toward cancer cells” value [1] was “exhibited cytotoxic effects”, the pIC50 (M21; M21, in vitro, read-out: IC50, growth of human malignant melanoma cells) was about 7.48 and the pIC50 (M21; M21 skin cancer, trypan blue exclusion assay, read-out: IC50 M21) was 7.48. The tumor growth [2] was “significantly inhibited”, the tumor volume ([2]; N=8, p<0.01) was 435.1 mm^3 and the “cell death of G1 arrest (Ara-C-treated) glioma cells” value (C6 glioma cells) was “not induced cell death”. The pIC50 (Hep3B) was 5.87 and the “cell number of HT29-5FUR relative to control” value (HT29-5FUR cells) was “dose-dependent decreases”.
